US9108944B2, “Androgen receptor modulators and uses thereof” (ARAGON PHARMACEUTICALS, INC., priority 2010, dated 2015)

Key:
[1] = molecular target: T1, AR-VP16 (Homo sapiens, UniProt P10275); assay: AR-VP16 DNA Binding Assay, agonist mode (HepG2 cells); format: cell-based; settings: Emax >20x DMSO control = agonist
T1 sequence (P10275 560-920 limits assumed): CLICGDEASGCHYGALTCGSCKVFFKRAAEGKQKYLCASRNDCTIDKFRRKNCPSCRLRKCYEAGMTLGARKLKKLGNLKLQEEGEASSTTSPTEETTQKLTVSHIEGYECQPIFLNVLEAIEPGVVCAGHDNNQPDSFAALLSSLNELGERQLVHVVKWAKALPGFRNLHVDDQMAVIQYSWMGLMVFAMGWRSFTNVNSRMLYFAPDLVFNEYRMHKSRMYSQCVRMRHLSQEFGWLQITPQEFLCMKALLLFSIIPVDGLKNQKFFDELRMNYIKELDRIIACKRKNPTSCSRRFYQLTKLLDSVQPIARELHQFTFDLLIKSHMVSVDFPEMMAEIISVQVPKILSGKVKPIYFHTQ

[2] = molecular target: T1, AR-VP16; assay: AR-VP16 DNA Binding Assay, antagonist mode (HepG2 cells, 0.1 nM R1881); format: cell-based
Method in brief: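 Transfected HepG2 cells expressing AR-VP16 received serially diluted compound in charcoal-stripped-serum RPMI the day after transfection, with 0.1 nM R1881 (final) added only for antagonist testing. After 48 h, cells were lysed for measurement.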

SMILES	ARVP16 DNA Binding Assay (Agonist mode): Agonist? [1]	IC50 [2] [µM]
CN1CCN(CCNC(=O)c2ccc(N3C(=S)N(c4cnc(C#N)c(C(F)(F)F)c4)C(=O)C34CCC4)cc2F)CC1 [Compound 243, 4-(7-(6-Cyano-5-(trifluoromethyl)pyridin-3-yl)-8-oxo-6-thioxo-5,7-diazaspiro[3.4]octan-5-yl)-2-fluoro-N-(2-(4-methylpiperazin-1-yl)ethyl)benzamide]	No (Agonist defined as a compound whose Emax in the ARVP16 DNA Binding Assay (Agonist mode) is >20x DMSO control)	> 1
N#Cc1ncc(N2C(=O)C3(CCC3)N(c3ccc(C(=O)NCCc4cccnc4)c(F)c3)C2=S)cc1C(F)(F)F [Compound 244, 4-(7-(6-Cyano-5-(trifluoromethyl)pyridin-3-yl)-8-oxo-6-thioxo-5,7-diazaspiro[3.4]octan-5-yl)-2-fluoro-N-(2-(pyridin-3-yl)ethyl)benzamide]	No (Agonist defined as a compound whose Emax in the ARVP16 DNA Binding Assay (Agonist mode) is >20x DMSO control)	< 1
CCOC(=O)CNC(=O)c1ccc(N2C(=S)N(c3cnc(C#N)c(C(F)(F)F)c3)C(=O)C23CCC3)cc1F [Compound 245, Ethyl 2-(4-(7-(6-cyano-5-(trifluoromethyl)pyridin-3-yl)-8-oxo-6-thioxo-5,7-diazaspiro[3.4]octan-5-yl)-2-fluorobenzamido)acetate]	No (Agonist defined as a compound whose Emax in the ARVP16 DNA Binding Assay (Agonist mode) is >20x DMSO control)	> 1
CCOC(=O)CCNC(=O)c1ccc(N2C(=S)N(c3cnc(C#N)c(C(F)(F)F)c3)C(=O)C23CCC3)cc1F [Compound 246, Ethyl 3-(4-(7-(6-cyano-5-(trifluoromethyl)pyridin-3-yl)-8-oxo-6-thioxo-5,7-diazaspiro[3.4]octan-5-yl)-2-fluorobenzamido)propanoate]	No (Agonist defined as a compound whose Emax in the ARVP16 DNA Binding Assay (Agonist mode) is >20x DMSO control)	> 1
CCOC(=O)CCCNC(=O)c1ccc(N2C(=S)N(c3cnc(C#N)c(C(F)(F)F)c3)C(=O)C23CCC3)cc1F [Compound 247, Ethyl 4-(4-(7-(6-cyano-5-(trifluoromethyl)pyridin-3-yl)-8-oxo-6-thioxo-5,7-diazaspiro[3.4]octan-5-yl)-2-fluorobenzamido)butanoate]	No (Agonist defined as a compound whose Emax in the ARVP16 DNA Binding Assay (Agonist mode) is >20x DMSO control)	> 1
COCCCNC(=O)c1ccc(N2C(=S)N(c3cnc(C#N)c(C(F)(F)F)c3)C(=O)C23CCC3)cc1F [Compound 249, 4-(7-(6-Cyano-5-(trifluoromethyl)pyridin-3-yl)-8-oxo-6-thioxo-5,7-diazaspiro[3.4]octan-5-yl)-2-fluoro-N-(3-methoxypropyl)benzamide]	No (Agonist defined as a compound whose Emax in the ARVP16 DNA Binding Assay (Agonist mode) is >20x DMSO control)	< 1
COCCN(C)C(=O)c1ccc(N2C(=S)N(c3cnc(C#N)c(C(F)(F)F)c3)C(=O)C23CCC3)cc1F [Compound 250, 4-(7-(6-Cyano-5-(trifluoromethyl)pyridin-3-yl)-8-oxo-6-thioxo-5,7-diazaspiro[3.4]octan-5-yl)-2-fluoro-N-(2-methoxyethyl)-N-methylbenzamide]	No (Agonist defined as a compound whose Emax in the ARVP16 DNA Binding Assay (Agonist mode) is >20x DMSO control)	> 1
N#Cc1ncc(N2C(=O)C3(CCC3)N(c3ccc(F)c(C(=O)NCCN4CCCC4)c3)C2=S)cc1C(F)(F)F [Compound 251, 5-(7-(6-Cyano-5-(trifluoromethyl)pyridin-3-yl)-8-oxo-6-thioxo-5,7-diazaspiro[3.4]octan-5-yl)-2-fluoro-N-(2-(pyrrolidin-1-yl)ethyl)benzamide]	No (Agonist defined as a compound whose Emax in the ARVP16 DNA Binding Assay (Agonist mode) is >20x DMSO control)	> 1
N#Cc1ncc(N2C(=O)C3(CCC3)N(c3ccc(F)c(C(=O)NCCCN4CCCC4)c3)C2=S)cc1C(F)(F)F [Compound 252, 5-(7-(6-Cyano-5-(trifluoromethyl)pyridin-3-yl)-8-oxo-6-thioxo-5,7-diazaspiro[3.4]octan-5-yl)-2-fluoro-N-(3-(pyrrolidin-1-yl)propyl)benzamide]	No (Agonist defined as a compound whose Emax in the ARVP16 DNA Binding Assay (Agonist mode) is >20x DMSO control)	< 1
N#Cc1ncc(N2C(=O)C3(CCC3)N(c3ccc(F)c(C(=O)NCCN4CCOCC4)c3)C2=S)cc1C(F)(F)F [Compound 253, 5-(7-(6-Cyano-5-(trifluoromethyl)pyridin-3-yl)-8-oxo-6-thioxo-5,7-diazaspiro[3.4]octan-5-yl)-2-fluoro-N-(2-morpholinoethyl)benzamide]	No (Agonist defined as a compound whose Emax in the ARVP16 DNA Binding Assay (Agonist mode) is >20x DMSO control)	> 1
CN1CCN(CCNC(=O)c2cc(N3C(=S)N(c4cnc(C#N)c(C(F)(F)F)c4)C(=O)C34CCC4)ccc2F)CC1 [Compound 254, 5-(7-(6-Cyano-5-(trifluoromethyl)pyridin-3-yl)-8-oxo-6-thioxo-5,7-diazaspiro[3.4]octan-5-yl)-2-fluoro-N-(2-(4-methylpiperazin-1-yl)ethyl)benzamide]	No (Agonist defined as a compound whose Emax in the ARVP16 DNA Binding Assay (Agonist mode) is >20x DMSO control)	> 1
N#Cc1ncc(N2C(=O)C3(CCC3)N(c3ccc(C(=O)Nc4ccccc4)c(F)c3)C2=S)cc1C(F)(F)F [Compound 255, 4-(7-(6-Cyano-5-(trifluoromethyl)pyridin-3-yl)-8-oxo-6-thioxo-5,7-diazaspiro[3.4]octan-5-yl)-2-fluoro-N-phenylbenzamide]	No (Agonist defined as a compound whose Emax in the ARVP16 DNA Binding Assay (Agonist mode) is >20x DMSO control)	< 1
Cn1ncc(Br)c1CCNC(=O)c1ccc(N2C(=S)N(c3cnc(C#N)c(C(F)(F)F)c3)C(=O)C23CCC3)cc1F [Compound 256, N-(2-(4-Bromo-1-methyl-1H-pyrazol-5-yl)ethyl)-4-(7-(6-cyano-5-(trifluoromethyl)pyridin-3-yl)-8-oxo-6-thioxo-5,7-diazaspiro[3.4]octan-5-yl)-2-fluorobenzamide]	No (Agonist defined as a compound whose Emax in the ARVP16 DNA Binding Assay (Agonist mode) is >20x DMSO control)	< 1
N#Cc1ncc(N2C(=O)C3(CCC3)N(c3ccc(C(=O)NCCc4ccccc4)c(F)c3)C2=S)cc1C(F)(F)F [Compound 257, 4-(7-(6-Cyano-5-(trifluoromethyl)pyridin-3-yl)-8-oxo-6-thioxo-5,7-diazaspiro[3.4]octan-5-yl)-2-fluoro-N-phenethylbenzamide]	No (Agonist defined as a compound whose Emax in the ARVP16 DNA Binding Assay (Agonist mode) is >20x DMSO control)	< 1
N#Cc1ncc(N2C(=O)C3(CCC3)N(c3ccc(C(=O)NCc4ccncc4)c(F)c3)C2=S)cc1C(F)(F)F [Compound 259, 4-(7-(6-Cyano-5-(trifluoromethyl)pyridin-3-yl)-8-oxo-6-thioxo-5,7-diazaspiro[3.4]octan-5-yl)-2-fluoro-N-(pyridin-4-ylmethyl)benzamide]	No (Agonist defined as a compound whose Emax in the ARVP16 DNA Binding Assay (Agonist mode) is >20x DMSO control)	< 1
N#Cc1ncc(N2C(=O)C3(CCC3)N(c3ccc(C(=O)Nc4ccccn4)c(F)c3)C2=S)cc1C(F)(F)F [Compound 261, 4-(7-(6-Cyano-5-(trifluoromethyl)pyridin-3-yl)-8-oxo-6-thioxo-5,7-diazaspiro[3.4]octan-5-yl)-2-fluoro-N-(pyridin-2-yl)benzamide]	No (Agonist defined as a compound whose Emax in the ARVP16 DNA Binding Assay (Agonist mode) is >20x DMSO control)	< 1
N#Cc1ncc(N2C(=O)C3(CCC3)N(c3ccc(C(=O)Nc4cccnc4)c(F)c3)C2=S)cc1C(F)(F)F [Compound 262, 4-(7-(6-Cyano-5-(trifluoromethyl)pyridin-3-yl)-8-oxo-6-thioxo-5,7-diazaspiro[3.4]octan-5-yl)-2-fluoro-N-(pyridin-3-yl)benzamide]	No (Agonist defined as a compound whose Emax in the ARVP16 DNA Binding Assay (Agonist mode) is >20x DMSO control)	< 1
N#Cc1ncc(N2C(=O)C3(CCC3)N(c3ccc(C(=O)Nc4ccncc4)c(F)c3)C2=S)cc1C(F)(F)F [Compound 263, 4-(7-(6-Cyano-5-(trifluoromethyl)pyridin-3-yl)-8-oxo-6-thioxo-5,7-diazaspiro[3.4]octan-5-yl)-2-fluoro-N-(pyridin-4-yl)benzamide]	Yes (Agonist defined as a compound whose Emax in the ARVP16 DNA Binding Assay (Agonist mode) is >20x DMSO control)	< 1
N#Cc1ncc(N2C(=O)C3(CCC3)N(c3ccc(C(=O)NCc4ccco4)c(F)c3)C2=S)cc1C(F)(F)F [Compound 266, 4-(7-(6-Cyano-5-(trifluoromethyl)pyridin-3-yl)-8-oxo-6-thioxo-5,7-diazaspiro[3.4]octan-5-yl)-2-fluoro-N-(furan-2-ylmethyl)benzamide]	No (Agonist defined as a compound whose Emax in the ARVP16 DNA Binding Assay (Agonist mode) is >20x DMSO control)	< 1
